According to patent US20220347175A1, “PYRIDAZINONE DERIVATIVE” (Sumitomo Dainippon Pharma Co., Ltd., priority 2018, published 2022):

Experiments:
human Nav1.1 = biological target: T1, human Nav1.1 (Homo sapiens, UniProt P35498); assay: Amplification of Nav1.1-derived voltage-dependent sodium current (Nav1.1 current), cell line stably expressing human Nav1.1, automated patch clamp; format: cell-based
T1 construct: host or cells: HEK293
Outline: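 Automated whole-cell voltage-clamp recordings used HEK293 cells stably expressing human Nav1.1, keeping only cells with >500 pA current, with currents evoked by ramp voltage. Compounds were applied in extracellular fluid with 1% DMSO, and amplification (%) was computed from peak current or AUC after versus before addition.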

human Nav1.5 = biological target: T2, human Nav1.5 (Homo sapiens, UniProt Q14524); assay: Amplification of Nav1.5-derived voltage-dependent sodium current (Nav1.5 current), cell line stably expressing human Nav1.5, automated patch clamp; format: cell-based
T2 construct: expressed in transfected cells; host or cells: CHO-K1 (T-REx System, ThermoFisher Scientific)
Procedure: Test 2: Evaluation of the Amplification in Nav1.5-Derived Voltage-Dependent Sodium Current (Nav1.5 Current) by Using a Cell Line Stably Expressing Human Nav1.5
A CHO-K1 cell line (Chinese hamster ovary) stably expressing human Nav1.5 (Gene Bank Accession No: P000326.2) was obtained by using purchased T-Rex System (ThermoFisher Scientific, USA), and used for the present test. The effect of test compounds on the amplification of Nav1.5 current was evaluated by using a cell line stably expressing human Nav1.5 and HTS automated patch clamp system, similarly in the method using Nav1.1. In other words, test compounds were added in an extracellular fluid which contained 1% DMSO and 500 nmol/L Tetrodotoxin (TTX), and evaluated as a change of the peak value of Nav1.5 current and the area under the curve (AUC). The induction and the measurement of Nav1.5 current, the pharmacologic effect on Nav1.5 current, and a method for pharmacological evaluation were carried out by the same method as in Nav1.1.

[1] = 10 μmol/L compound, change of the area under the curve of Nav1.1 current (Test Result 1)
[2] = 10 μmol/L compound, change of the area under the curve of Nav1.5 current (Test Result 1)
[3] = compound 3 μmol/L, HEK293 stably expressing human Nav1.1
[4] = compound 3 μmol/L, CHO-K1 stably expressing human Nav1.5
[5] = compound 1 μmol/L, HEK293 stably expressing human Nav1.1
[6] = compound 1 μmol/L, CHO-K1 stably expressing human Nav1.5

T2 sequence (Q14524 1-2015 isoform Q14524-2): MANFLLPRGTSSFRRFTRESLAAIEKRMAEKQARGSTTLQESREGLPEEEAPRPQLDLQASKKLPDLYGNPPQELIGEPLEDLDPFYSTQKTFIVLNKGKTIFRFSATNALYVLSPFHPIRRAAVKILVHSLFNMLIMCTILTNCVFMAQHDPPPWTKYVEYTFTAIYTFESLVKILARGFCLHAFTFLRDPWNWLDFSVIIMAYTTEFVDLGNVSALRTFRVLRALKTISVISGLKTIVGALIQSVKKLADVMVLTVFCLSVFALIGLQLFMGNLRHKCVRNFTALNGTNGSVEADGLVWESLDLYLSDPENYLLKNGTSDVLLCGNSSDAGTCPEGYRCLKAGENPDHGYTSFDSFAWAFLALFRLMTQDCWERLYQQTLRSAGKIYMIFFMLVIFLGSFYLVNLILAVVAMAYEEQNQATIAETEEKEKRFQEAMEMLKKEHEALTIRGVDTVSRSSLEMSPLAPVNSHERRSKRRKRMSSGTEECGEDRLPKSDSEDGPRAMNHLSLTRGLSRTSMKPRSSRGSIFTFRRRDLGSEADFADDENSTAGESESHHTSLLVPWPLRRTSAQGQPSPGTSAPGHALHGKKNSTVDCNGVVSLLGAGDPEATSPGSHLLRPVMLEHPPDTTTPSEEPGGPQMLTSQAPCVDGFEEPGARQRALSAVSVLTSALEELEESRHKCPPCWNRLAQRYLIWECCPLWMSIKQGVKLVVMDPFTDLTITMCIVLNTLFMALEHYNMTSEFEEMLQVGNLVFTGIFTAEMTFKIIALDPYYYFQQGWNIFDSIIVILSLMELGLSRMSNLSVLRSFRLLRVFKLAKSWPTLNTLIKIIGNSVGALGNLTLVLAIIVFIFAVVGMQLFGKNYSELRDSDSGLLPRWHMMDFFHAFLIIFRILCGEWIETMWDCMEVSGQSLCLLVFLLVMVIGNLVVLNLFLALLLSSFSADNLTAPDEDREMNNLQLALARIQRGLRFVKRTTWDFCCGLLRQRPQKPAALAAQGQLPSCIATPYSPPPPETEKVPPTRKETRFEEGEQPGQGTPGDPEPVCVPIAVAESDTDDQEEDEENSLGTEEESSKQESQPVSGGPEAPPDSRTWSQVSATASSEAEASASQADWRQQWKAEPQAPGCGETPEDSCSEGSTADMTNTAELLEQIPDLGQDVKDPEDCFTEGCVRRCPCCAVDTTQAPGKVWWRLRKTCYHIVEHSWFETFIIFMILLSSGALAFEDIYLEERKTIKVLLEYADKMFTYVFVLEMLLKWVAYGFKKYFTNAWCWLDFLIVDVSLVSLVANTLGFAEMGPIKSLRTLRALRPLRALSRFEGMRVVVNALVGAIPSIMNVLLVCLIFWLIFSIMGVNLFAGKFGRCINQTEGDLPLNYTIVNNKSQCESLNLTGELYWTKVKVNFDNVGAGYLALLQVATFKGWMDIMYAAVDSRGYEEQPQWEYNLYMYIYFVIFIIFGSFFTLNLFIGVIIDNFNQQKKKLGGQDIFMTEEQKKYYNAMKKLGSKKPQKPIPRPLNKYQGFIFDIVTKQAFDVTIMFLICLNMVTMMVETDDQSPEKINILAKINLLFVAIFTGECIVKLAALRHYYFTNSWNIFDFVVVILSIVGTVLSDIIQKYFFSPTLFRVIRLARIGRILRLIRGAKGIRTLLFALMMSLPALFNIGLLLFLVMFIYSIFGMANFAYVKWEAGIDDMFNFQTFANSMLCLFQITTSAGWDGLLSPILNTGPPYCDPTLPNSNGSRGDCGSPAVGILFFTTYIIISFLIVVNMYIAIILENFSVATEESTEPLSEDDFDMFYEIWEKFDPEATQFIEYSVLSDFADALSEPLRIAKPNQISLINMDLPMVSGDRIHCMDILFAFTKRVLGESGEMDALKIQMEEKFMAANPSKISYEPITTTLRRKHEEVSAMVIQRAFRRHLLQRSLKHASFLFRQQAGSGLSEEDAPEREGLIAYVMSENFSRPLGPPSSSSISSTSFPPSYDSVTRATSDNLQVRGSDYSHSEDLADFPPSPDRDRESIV

CC1CC=C(c2ccc(=O)n(CC(=O)N3CCC(c4ccccn4)CC3)n2)CC1 (racemic) [Example 260]
Nav1.1 current amplification rate (%) (human Nav1.1; [1]): 13%
Nav1.5 current amplification rate (%) (human Nav1.5; [2]): −6%

CC1CC=C(c2ccc(=O)n(CC(=O)N3CCN(c4ccncc4)CC3)n2)CC1 (racemic) [Example 261]
Nav1.1 current amplification rate (%) (human Nav1.1; [1]): 60%
Nav1.5 current amplification rate (%) (human Nav1.5; [2]): 1%

CC1CC=C(c2ccc(=O)n(CC(=O)N3CCN(c4cncc(F)c4)CC3)n2)CC1 (racemic) [Example 263]
Nav1.1 current amplification rate (%) (human Nav1.1; [1]): 342%
Nav1.5 current amplification rate (%) (human Nav1.5; [2]): 32%

Cc1ncc(-c2cccc3c2CCN3C(=O)Cn2nc(C3=CCC(C)CC3)ccc2=O)cn1 (racemic) [Example 264]
Nav1.1 current amplification rate (%) (human Nav1.1; [3]): 597%
Nav1.5 current amplification rate (%) (human Nav1.5; [4]): 65%

CC1CC=C(c2ccc(=O)n(CC(=O)N3CCc4c(C5=CCNC5)cccc43)n2)CC1 (racemic) [Example 265]
Nav1.1 current amplification rate (%) (human Nav1.1; [3]): 110%
Nav1.5 current amplification rate (%) (human Nav1.5; [4]): 19%

CC1CC=C(c2ccc(=O)n(CC(=O)N3CCc4c(CO)cccc43)n2)CC1 (racemic) [Example 266]
Nav1.1 current amplification rate (%) (human Nav1.1; [3]): 108%
Nav1.5 current amplification rate (%) (human Nav1.5; [4]): 128%

CC1CC=C(c2ccc(=O)n(CC(=O)N3CCc4c(C5=CCN(C)C5)cccc43)n2)CC1 (racemic) [Example 267]
Nav1.1 current amplification rate (%) (human Nav1.1; [3]): 231%
Nav1.5 current amplification rate (%) (human Nav1.5; [4]): 79%

CC1CC=C(c2ccc(=O)n(CC(=O)N3CCc4c(CN5CCOCC5)cccc43)n2)CC1 (racemic) [Example 270]
Nav1.1 current amplification rate (%) (human Nav1.1; [3]): 481%
Nav1.5 current amplification rate (%) (human Nav1.5; [4]): 78%

CC1CC=C(c2ccc(=O)n(CC(=O)N3CCc4c(CN5CCCC5)cccc43)n2)CC1 (racemic) [Example 271]
Nav1.1 current amplification rate (%) (human Nav1.1; [3]): 48%
Nav1.5 current amplification rate (%) (human Nav1.5; [4]): 70%

CC1CC=C(c2ccc(=O)n(CC(=O)N3CCc4c(CN(C)C5COC5)cccc43)n2)CC1 (racemic) [Example 276]
Nav1.1 current amplification rate (%) (human Nav1.1; [5]): 207%
Nav1.5 current amplification rate (%) (human Nav1.5; [6]): 47%

CC1CC=C(c2ccc(=O)n(CC(=O)N3CCc4c3cccc4C(C)(C)O)n2)CC1 (racemic) [Example 277]
Nav1.1 current amplification rate (%) (human Nav1.1; [5]): 210%
Nav1.5 current amplification rate (%) (human Nav1.5; [6]): 18%

CC1CC=C(c2ccc(=O)n(CC(=O)N3CCc4c(Cn5ccnc5)cccc43)n2)CC1 (racemic) [Example 286]
Nav1.1 current amplification rate (%) (human Nav1.1; [5]): 848%
Nav1.5 current amplification rate (%) (human Nav1.5; [6]): 579%

CC1CC=C(c2ccc(=O)n(CC(=O)N3CCc4c(CN5CC=CC5)cccc43)n2)CC1 (racemic) [Example 287]
Nav1.1 current amplification rate (%) (human Nav1.1; [5]): 73%
Nav1.5 current amplification rate (%) (human Nav1.5; [6]): 123%

CC1CC=C(c2ccc(=O)n(CC(=O)N3CCOc4c(-c5cn[nH]c5)cccc43)n2)CC1 (racemic) [Example 290]
Nav1.1 current amplification rate (%) (human Nav1.1; [3]): 94%
Nav1.5 current amplification rate (%) (human Nav1.5; [4]): 4.5%

CC1CC=C(c2ccc(=O)n(CC(=O)N3CCc4c(Cn5cncn5)cccc43)n2)CC1 (racemic) [Example 294]
Nav1.1 current amplification rate (%) (human Nav1.1; [5]): 271%
Nav1.5 current amplification rate (%) (human Nav1.5; [6]): 427%

CC1CC=C(c2ccc(=O)n(CC(=O)N3CCc4c(C5CNC5)cccc43)n2)CC1 (racemic) [Example 299]
Nav1.1 current amplification rate (%) (human Nav1.1; [3]): 6%
Nav1.5 current amplification rate (%) (human Nav1.5; [4]): 10%

CC1CC=C(c2ccc(=O)n(CC(=O)N3CCc4c(C5CN(C)C5)cccc43)n2)CC1 (racemic) [Example 300]
Nav1.1 current amplification rate (%) (human Nav1.1; [3]): 140%
Nav1.5 current amplification rate (%) (human Nav1.5; [4]): 55%

CC1CC=C(c2ccc(=O)n(CC(=O)N3CCc4c(C5CN(C6COC6)C5)cccc43)n2)CC1 (racemic) [Example 301]
Nav1.1 current amplification rate (%) (human Nav1.1; [3]): 410%
Nav1.5 current amplification rate (%) (human Nav1.5; [4]): 55%

CCN1CC(c2cccc3c2CCN3C(=O)Cn2nc(C3=CCC(C)CC3)ccc2=O)C1 (racemic) [Example 302]
Nav1.1 current amplification rate (%) (human Nav1.1; [3]): 104%
Nav1.5 current amplification rate (%) (human Nav1.5; [4]): 79%

CC1CC=C(c2ccc(=O)n(CC(=O)N3CCc4c(C5CN(CCO)C5)cccc43)n2)CC1 (racemic) [Example 303]
Nav1.1 current amplification rate (%) (human Nav1.1; [3]): 67%
Nav1.5 current amplification rate (%) (human Nav1.5; [4]): 11%

CC1CC=C(c2ccc(=O)n(CC(=O)N3CCc4c(C5CN(C6CCOC6)C5)cccc43)n2)CC1 (racemic) [Example 305]
Nav1.1 current amplification rate (%) (human Nav1.1; [3]): 314%
Nav1.5 current amplification rate (%) (human Nav1.5; [4]): 117%

CC1CC=C(c2ccc(=O)n(CC(=O)N3CCc4c(C5CN(C(=O)C(C)(C)O)C5)cccc43)n2)CC1 (racemic) [Example 306]
Nav1.1 current amplification rate (%) (human Nav1.1; [3]): 532%
Nav1.5 current amplification rate (%) (human Nav1.5; [4]): 327%

CC1CC=C(c2ccc(=O)n(CC(=O)N3CCc4c(OCC(C)(C)O)cccc43)n2)CC1 (racemic) [Example 307]
Nav1.1 current amplification rate (%) (human Nav1.1; [3]): 320%
Nav1.5 current amplification rate (%) (human Nav1.5; [4]): 37%

CC1CC=C(c2ccc(=O)n(CC(=O)N3CCc4c(-c5cn[nH]c5)cncc43)n2)CC1 (racemic) [Example 311]
Nav1.1 current amplification rate (%) (human Nav1.1; [5]): 265%
Nav1.5 current amplification rate (%) (human Nav1.5; [6]): 52%

CC1CC=C(c2ccc(=O)n(CC(=O)N3CCc4c(CNC5COC5)cccc43)n2)CC1 (racemic) [Example 313]
Nav1.1 current amplification rate (%) (human Nav1.1; [5]): 84%
Nav1.5 current amplification rate (%) (human Nav1.5; [6]): 133%

CC1CC=C(c2ccc(=O)n(CC(=O)N3CCc4cc(C5CN(C6COC6)C5)ccc43)n2)CC1 (racemic) [Example 318]
Nav1.1 current amplification rate (%) (human Nav1.1; [3]): 77%
Nav1.5 current amplification rate (%) (human Nav1.5; [4]): 128%

CC1CC=C(c2ccc(=O)n(CC(=O)N3CCc4c3ccnc4N3CCOCC3)n2)CC1 (racemic) [Example 319]
Nav1.1 current amplification rate (%) (human Nav1.1; [5]): 134%
Nav1.5 current amplification rate (%) (human Nav1.5; [6]): 30%

CC1CC=C(c2ccc(=O)n(CC(=O)N3CCc4c(C5CN(C(=O)CO)C5)cccc43)n2)CC1 (racemic) [Example 321]
Nav1.1 current amplification rate (%) (human Nav1.1; [3]): 478%
Nav1.5 current amplification rate (%) (human Nav1.5; [4]): 330%

CC1CC=C(c2ccc(=O)n(CC(=O)Nc3cccc(N4CCOCC4)c3F)n2)CC1 (racemic) [Example 322]
Nav1.1 current amplification rate (%) (human Nav1.1; [3]): 115%
Nav1.5 current amplification rate (%) (human Nav1.5; [4]): 18%

Cc1cc(NC(=O)Cn2nc(C3=CCC(C)CC3)ccc2=O)cc2ncoc12 (racemic) [Example 323]
Nav1.1 current amplification rate (%) (human Nav1.1; [3]): 154%
Nav1.5 current amplification rate (%) (human Nav1.5; [4]): 11%

CC1CC=C(c2ccc(=O)n(CC(=O)Nc3ccc4oc(CN(C)C)nc4c3)n2)CC1 (racemic) [Example 324]
Nav1.1 current amplification rate (%) (human Nav1.1; [3]): 50%
Nav1.5 current amplification rate (%) (human Nav1.5; [4]): 5%

COCc1nc2cc(NC(=O)Cn3nc(C4=CCC(C)CC4)ccc3=O)ccc2o1 (racemic) [Example 325]
Nav1.1 current amplification rate (%) (human Nav1.1; [3]): 233%
Nav1.5 current amplification rate (%) (human Nav1.5; [4]): 10%

Cc1nc2cc(NC(=O)Cn3nc(C4=CCC(C)CC4)ccc3=O)cnc2s1 (racemic) [Example 326]
Nav1.1 current amplification rate (%) (human Nav1.1; [3]): 132%
Nav1.5 current amplification rate (%) (human Nav1.5; [4]): 34%

CC1CC=C(c2ccc(=O)n(CC(=O)Nc3ccc4oc(C(C)(C)O)nc4c3)n2)CC1 (racemic) [Example 327]
Nav1.1 current amplification rate (%) (human Nav1.1; [3]): 124%
Nav1.5 current amplification rate (%) (human Nav1.5; [4]): 9%

CC1CC=C(c2ccc(=O)n(CC(=O)Nc3cc4nccn4cn3)n2)CC1 (racemic) [Example 328]
Nav1.1 current amplification rate (%) (human Nav1.1; [3]): 58%
Nav1.5 current amplification rate (%) (human Nav1.5; [4]): 21%

Cc1nc2cc(NC(=O)Cn3nc(C4=CCC(C)CC4)ccc3=O)ccn2c1C (racemic) [Example 329]
Nav1.1 current amplification rate (%) (human Nav1.1; [3]): 100%
Nav1.5 current amplification rate (%) (human Nav1.5; [4]): 50%

CC1CC=C(c2ccc(=O)n(CC(=O)Nc3ccn4ncnc4c3)n2)CC1 (racemic) [Example 330]
Nav1.1 current amplification rate (%) (human Nav1.1; [5]): 191%
Nav1.5 current amplification rate (%) (human Nav1.5; [6]): 47%

CC1CC=C(c2ccc(=O)n(CC(=O)Nc3ccc4oc(CN5CCOCC5)nc4c3)n2)CC1 (racemic) [Example 331]
Nav1.1 current amplification rate (%) (human Nav1.1; [3]): 64%
Nav1.5 current amplification rate (%) (human Nav1.5; [4]): 9%

COC1CN(Cc2nc3cc(NC(=O)Cn4nc(C5=CCC(C)CC5)ccc4=O)ccc3o2)C1 (racemic) [Example 332]
Nav1.1 current amplification rate (%) (human Nav1.1; [3]): 15%
Nav1.5 current amplification rate (%) (human Nav1.5; [4]): 9%
